Among the data in PubChem BioAssay AID2060362 (Molecular Pharmacology Branch, DTP, NCI, 2025) are viability, T/C and IC50 values, retold here.

SMILES strings stand for the structures. “And” between values parts separate entries of the source, which are not always exact repeats. Identical values can stand only once. Some results are limits rather than exact numbers.

The test relates to 128128-338-R-J1-PDC spheroids, viability % test/control. Kind of test: Anticancer human tumor 128128-338-R-J1-PDC patient-derived melanoma cell line growth inhibition [TAK]. Conditions: spheroids with HUVEC and MSC; for viability, T/C: stronger effect = lower value. The source says: Combinatorial screen of targeted agents with TAK-243 and ipatasertib in multi-cell type tumor spheroids
A high-throughput screen of multi-cell type tumor spheroids was designed to identify active combinations of targeted small molecules and TAK-243 or ipatasertib. Complex spheroids include a stromal component modeled by human endothelial cells (HUVEC) and fibroblasts modeled by human mesenchymal stem cells (MSCs). The concentration ranges selected for each drug and investigational agent were based upon clinically achievable concentrations if the clinical Cmax of the agent was known.
Compounds. The drugs and investigational agents: TAK-243 (785004), ipatasertib (767898), everolimus (733504), selumetinib (741078), bortezomib (756655), trametinib (758246), ixazomib (758254), vemurafenib (761431), dabrafenib (764134), sapanisertib (764658), alpelisib (765974), and copanlisib (816437), were obtained from the National Cancer Institute (NCI) Developmental Therapeutics Program Chemical Repository. The FDA-approved anticancer drug set is available from the NCI Developmental Therapeutics Program. […] The stock solutions were prepared in dimethyl sulfoxide (DMSO, Sigma-Aldrich, St. Louis, MO, cat. D2650) at 800-fold the tested concentration and stored at -70 degrees C prior to their use. All drugs and investigational agents were tested over a range starting from a high concentration at or near the clinical Cmax and decreasing in half-log increments. If the clinical Cmax for an agent had not been determined, the highest concentration tested was 10 microM.
NCI60 Cell Culture. NCI60 cell lines were obtained from the NCI Developmental Therapeutics Program Tumor Repository. For each lot of cells, the Repository performed Applied Biosystems AmpFLSTR Identifiler testing with PCR amplification to confirm consistency with the published Identifier STR profile for each cell line. Cells were kept in continuous culture for no more than 20 passages. The optimal seeding densities for each of the cell lines at each time point assessed were determined prior to performing the concentration response studies. Briefly, the NCI60 human tumor lines were grown as monolayers in RPMI 1640 medium supplemented with 10% FBS and 2 mmol/L L-glutamine.
An additional 2 lines were from the NCI60 cell line panel including melanomas, MALME-3M and SK-MEL-2. Pooled donor human umbilical vein endothelial cells (HUVEC, Lonza, cat. CC-2519) and human mesenchymal stem cells (hMSC, Lonza, cat. PT-2501) were purchased from Lonza (Walkersville, MD).
PDMR cell lines were grown in complete medium (DC medium): Dulbecco's modified Eagle's medium (DMEM)/F12 supplemented with 5% fetal bovine serum (FBS), 2 mM L-glutamine, 100 U/mL penicillin and 100 µg/ml streptomycin, 0.4 µg/ml hydrocortisone, 10 ng/ml epidermal growth factor (EGF) recombinant human protein, 24 µg/mL adenine, and 0.1 mg/mL primocin. During culture from frozen stock vials, PDMR cells were cultured in the same medium containing 10 µM Y-27632 (see Table 3). The PDCs were cultured in complete DMEM/F12 media without 10 microM Y-27632 dihydrochloride for at least two passages prior to the screen. The pooled donor HUVEC and hMSC were cultured in endothelial cell growth medium 2 (PromoCell, Heidelberg, Germany, cat. C-22011) and mesenchymal stem cell growth medium 2 (PromoCell, cat. C-28009), respectively. For all experiments, HUVEC and hMSC were used at passages </=5.
For the pre-screen, cell seeding densities were determined from a titration spanning the range from 5,000 to 313 cells per well. The mct-spheroids including 60% malignant cells, 25% HUVEC and 15% MSC dispensed as a mixture into U-bottom Ultra-Low Attachment 384-well plates (Corning, NY)
High-throughput Drug Combination Screening.
Prior to their inoculation into 384-well plates, malignant cells, HUVEC, and hMSC were removed from T flasks using TrypLE express (Thermo Fisher Scientific, cat. 12605036) and harvested by centrifugation for 5 min at 233 x g. […]
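Also: spheroids exposed to compounds for 7 days.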
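For viability, T/C in this document: 100% = DMSO vehicle wells.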

On to `CC(C)CC(NC(=O)CNC(=O)c1cc(Cl)ccc1Cl)B1OC(=O)CC(CC(=O)O)(C(=O)O)O1` (configuration not stated), for which the viability, T/C – broadly, the ratio of treated to control – reads like this: (compound 0.000316 µM) 102% and 104%; (compound 0.001 µM) 95.7% and 102%; (compound 0.00316 µM) 102% and 99%; (compound 0.01 µM) 39.4% and 38.7%; (compound 0.0316 µM) 3.88% and 2.92%; (compound 0.1 µM) 0.22% and 0.2%. Also, the IC50 (usually the concentration needed to halve the response being measured) (curve of compound) is 8.17 nM and 8.06 nM.
In the case of `CC(C)NCC(C(=O)N1CCN(c2ncnc3c2C(C)CC3O)CC1)c1ccc(Cl)cc1` (configuration not stated), the viability, T/C runs as follows: (compound 0.3 µM) 102% [middle of 10 runs]; (compound 0.949 µM) 93% [middle of 10 runs]; (compound 3 µM) 89.2% [middle of 10 runs]; (compound 9.49 µM) 69.5% [middle of 10 runs]; (compound 30 µM) 22.7% [middle of 10 runs].
Take `CCCS(=O)(=O)Nc1ccc(F)c(C(=O)c2c[nH]c3ncc(-c4ccc(Cl)cc4)cc23)c1F` + CC(C)NCC(C(=O)N1CCN(c2ncnc3c2C(C)CC3O)CC1)c1ccc(Cl)cc1: the IC50 was 1070 nM (curve of first compound, second compound 0.3 µM); 1110 nM (curve of first compound, second compound 0.949 µM); 462 nM (curve of first compound, second compound 3 µM); less than 316 nM (curve of first compound, second compound 9.49 µM); less than 316 nM (curve of first compound, second compound 30 µM). Besides, the viability, T/C (second compound 0.3 µM, first compound 0.316 µM) is 82.5%; the viability, T/C (second compound 0.3 µM, first compound 1 µM) was 52.1%; the viability, T/C (second compound 0.3 µM, first compound 3.16 µM) was 12.2%; the viability, T/C (second compound 0.3 µM, first compound 10 µM) is 0.57%; the viability, T/C (second compound 0.3 µM, first compound 31.6 µM) was 0.08%; the viability, T/C (second compound 0.3 µM, first compound 100 µM) is 0.68%. The viability, T/C (second compound 0.949 µM, first compound 0.316 µM) was 74.3%; the viability, T/C (second compound 0.949 µM, first compound 1 µM) was 54.4%; the viability, T/C (second compound 0.949 µM, first compound 3.16 µM) was 7.73%; the viability, T/C (second compound 0.949 µM, first compound 10 µM) is 0.33%; the viability, T/C (second compound 0.949 µM, first compound 31.6 µM) was 0.08%; the viability, T/C (second compound 0.949 µM, first compound 100 µM) was 0.4%. In addition, the viability, T/C is, setting by setting: (second compound 3 µM, first compound 0.316 µM) 63.9%; (second compound 3 µM, first compound 1 µM) 22.1%; (second compound 3 µM, first compound 3.16 µM) 1.94%; (second compound 3 µM, first compound 10 µM) 0.06%; (second compound 3 µM, first compound 31.6 µM) 0.03%; (second compound 3 µM, first compound 100 µM) 0.24%. Moreover, the viability, T/C (second compound 9.49 µM, first compound 0.316 µM) was 30.6%; the viability, T/C (second compound 9.49 µM, first compound 1 µM) is 9.75%; the viability, T/C (second compound 9.49 µM, first compound 3.16 µM) was 0.65%; the viability, T/C (second compound 9.49 µM, first compound 10 µM) is 0.02%; the viability, T/C (second compound 9.49 µM, first compound 31.6 µM) is 0.03%; the viability, T/C (second compound 9.49 µM, first compound 100 µM) was 0.11%. Besides, the viability, T/C by setting is: (second compound 30 µM, first compound 0.316 µM) 2.32%; (second compound 30 µM, first compound 1 µM) 0.63%; (second compound 30 µM, first compound 3.16 µM) 0.12%; (second compound 30 µM, first compound 10 µM) 0.07%; (second compound 30 µM, first compound 31.6 µM) 0.08%; (second compound 30 µM, first compound 100 µM) 0.12%.
